Measured values: US20230278954A1, “BRANCHED LIPID COMPOUDS” (priority 2020, published 2023)
pEC50: −log10 of the molar value. “And” between values parts separate entries of the source, which are not always exact repeats. Equal entries are not always repeated.

Columns and labels:
human TLR2 [1] = biological target: T1, human TLR2 (Homo sapiens, UniProt O60603); assay: Activation of human TLR2 II: HEK-BLUE-hTLR2 NF-kB/SEAP reporter assay; type: cell-based; conditions: for optical density (650 nm): screenings 1-3
T1 construct: expressed in transfected cells; host or cells: HEK-Blue hTLR2 cells
Experimental: The potency of the compounds as activators of human TLR-2s is tested in an in vitro assay in HEK-BLUE-hTLR2 cells.
HEK-BLUE-hTLR2 cells are designed for studying the stimulation of human TLR2 (hTLR2) by monitoring the activation of NF-kB. HEK-BLUE-hTLR2 cells are obtained by co-transfection of the hTLR2 and SEAP (secreted embryonic alkaline phosphatase) reporter genes into HEK293 cells. Stimulation with a TLR2 ligand activates NF-kB which induces the production of SEAP.
HEK-BLUE-hTLR2 cells were purchased from InvivoGen (San Diego, CA, USA). Cells were grown in DMEM supplemented with 10% FCS, 100 U/ml penicillin, 100 ug/ml streptomycin and 2 mM L-glutamine, 100 µg/mL Normocin in the presence of selection antibiotic purchased from InvivoGen and passaged when 70% confluence was reached per manufacturer’s recommendation.
i) A serial dilution of respective compounds were prepared in saline and added in […] of each dilution in triplicates per well in a flat bottom 96-well plate and placed in the incubator while waiting for the cells.
ii) Remove HEK-BLUE-hTLR2 cells in a T-75 flask from incubator and discard the growth media.
iii) Gently rinse the cells with prewarmed 10 ml of PBS
iv) Add 5 ml of prewarmed PBS and place the cells in 37° C. for 2 mins and then detach the cells by gently pipetting up and down the PBS on the surface where the cells adhere.
v) Cells suspension at the density of 280,000 cells/ml is prepared in HEK-Blue™ Detection medium which is purchased from InvivoGen and prepared according to the manufacturer’s instruction,
vi) Add immediately […] of the cell suspension per well of the plate which contains the solution of the compounds. […]

human TLR2 [2] = biological target: T1, human TLR2; assay: Activation of human TLR2 III: HEK-Blue hTLR2 dose response (SEAP reporter); type: cell-based; conditions: for optical density (650 nm): screenings 1-3
Experimental: Toll-Like Receptor (TLR) stimulation is tested by assessing NF-KB activation in the TLR expressing cell lines. HEK-Blue h/mTLR2 cells have been stably transfected with human or mouse TLR2 and CD14. The activity of the test articles are tested on human and mouse TLR2, as potential agonists. The test articles are evaluated at seven concentrations and compared to control ligands (see list below). These steps are performed in triplicate.
A 5 µg/mL working stock was then prepared for each compound from the 20 µg/mL dilution in sterile PBS. Starting from the 5 µg/mL working stock, a series of six 1:4 serial dilutions were made by mixing 100 µL of the previous highest dilution with 300 µL sterile PBS.
(§1) The secreted embryonic alkaline phosphatase (SEAP) reporter is under the control of a promoter inducible by the transcription factor NF-κB. This reporter gene allows the monitoring of signaling through the TLR, based on the activation of NF-κB. In a 96-well plate (200 µL total volume) containing the appropriate cells (50,000 - 75,000 cells/well), 20 µL of the test article or the positive control ligand (HKLC) is added to the wells. The media added to the wells is designed for the detection of NF-κB induced SEAP expression. After a 16-24-hour incubation the optical density (OD) is read at 650 nm on a Molecular Devices SpectraMax 340PC absorbance detector.

HEK-Blue Null1 cells = assay: TLR- control cell line HEK-Blue Null1 (control for human TLR2); type: cell-based
Experimental: as §1

HEK-Blue Null2 cells = assay: TLR- control cell line HEK-Blue Null2 (control for mouse TLR2); type: cell-based
Experimental: as §1

[3] = Stability IV: accelerated storage stability over 28 days, UHPLC; type: physicochemical; conditions: 40° C./75% RH
Experimental: Each compound was formulated in 0.9% w/w saline with addition of 0.1% w/w EDTA at about pH 5. The formulations were stored in the dark under accelerated conditions (40° C./75% RH) and reference formulations were stored at -80° C. At days 0, 9 and 28, samples were analysed by UHPLC and pH was measured.
Approximately 1.5 mg of each compound was weighed into glass HPLC vials and 1.5 mL of saline/EDTA formulation adjusted to pH 5.0 was added. The vials were vortex mixed then warmed under running hot water until full dissolution was observed.
4 × 100 uL aliquots of each solution were transferred to Agilent polypropylene 200 µL HPLC vials for storage under accelerated and reference conditions (two aliquots at each condition). These vials were removed at each time point for HPLC analysis. The frozen reference solutions at Day 9 and Day 28 were gently warmed under running hot water followed by vortex mixing for ~ 10 sec and sonication for 10 min to encourage complete dissolution. […]
Compounds B4 and B12 were analysed according to Gradient 2: […]
UHPLC results were analysed in a similarly to that described in Example 8. […]
Percentage recovery of main peak area is calculated according to the following equation (1): […]

T1 sequence (O60603 21-784): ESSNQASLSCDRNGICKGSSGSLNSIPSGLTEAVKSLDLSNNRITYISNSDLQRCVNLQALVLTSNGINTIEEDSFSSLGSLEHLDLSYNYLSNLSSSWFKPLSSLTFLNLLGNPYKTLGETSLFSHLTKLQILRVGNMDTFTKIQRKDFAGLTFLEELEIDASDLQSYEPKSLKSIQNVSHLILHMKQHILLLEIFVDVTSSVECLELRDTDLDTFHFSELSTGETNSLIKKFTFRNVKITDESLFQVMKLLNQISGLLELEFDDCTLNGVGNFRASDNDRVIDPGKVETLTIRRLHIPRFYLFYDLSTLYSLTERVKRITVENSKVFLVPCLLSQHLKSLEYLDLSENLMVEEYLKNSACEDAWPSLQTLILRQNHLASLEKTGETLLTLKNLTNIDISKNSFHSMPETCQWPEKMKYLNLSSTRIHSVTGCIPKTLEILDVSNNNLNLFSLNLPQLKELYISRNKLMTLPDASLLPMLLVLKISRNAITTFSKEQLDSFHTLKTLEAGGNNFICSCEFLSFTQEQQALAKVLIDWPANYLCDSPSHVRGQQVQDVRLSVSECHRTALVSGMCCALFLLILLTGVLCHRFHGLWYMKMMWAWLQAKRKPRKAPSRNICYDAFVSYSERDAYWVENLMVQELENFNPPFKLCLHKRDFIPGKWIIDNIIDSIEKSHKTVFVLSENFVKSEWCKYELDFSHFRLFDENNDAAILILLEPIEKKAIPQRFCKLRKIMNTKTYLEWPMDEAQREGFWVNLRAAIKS
T1 sequence (Q9Y2C9 32-796 partner): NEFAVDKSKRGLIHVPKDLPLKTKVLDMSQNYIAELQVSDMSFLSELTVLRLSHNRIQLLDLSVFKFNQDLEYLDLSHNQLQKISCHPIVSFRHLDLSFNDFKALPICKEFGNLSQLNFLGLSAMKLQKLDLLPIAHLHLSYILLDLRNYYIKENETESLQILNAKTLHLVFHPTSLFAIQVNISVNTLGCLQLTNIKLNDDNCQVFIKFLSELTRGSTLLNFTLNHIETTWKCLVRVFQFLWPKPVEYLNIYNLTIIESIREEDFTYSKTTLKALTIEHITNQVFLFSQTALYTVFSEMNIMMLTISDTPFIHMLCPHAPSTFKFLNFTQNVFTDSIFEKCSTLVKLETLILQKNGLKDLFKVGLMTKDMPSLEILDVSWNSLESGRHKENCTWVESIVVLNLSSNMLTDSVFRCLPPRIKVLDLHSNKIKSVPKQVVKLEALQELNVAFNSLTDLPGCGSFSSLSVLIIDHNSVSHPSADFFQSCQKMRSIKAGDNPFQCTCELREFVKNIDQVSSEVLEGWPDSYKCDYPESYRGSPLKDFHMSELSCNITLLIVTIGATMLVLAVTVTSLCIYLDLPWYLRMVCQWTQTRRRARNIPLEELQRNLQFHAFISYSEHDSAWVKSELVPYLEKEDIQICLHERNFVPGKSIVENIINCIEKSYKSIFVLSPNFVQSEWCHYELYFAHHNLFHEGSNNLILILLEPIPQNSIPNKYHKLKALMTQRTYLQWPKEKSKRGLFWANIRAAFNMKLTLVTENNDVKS

Structure (SMILES): CCCCCCCCCCCCCCC(C)C(=O)OC[C@H](CSC[C@H](N)C(=O)N[C@@H](CO)C(=O)NCCOCCOCCOCCOCCOCCOCCOCCOCCOCCOCCOCCOCCOCCOCCOCCOCCOCCOCCOCCOCCOCCOCCOCCOCCOCCOCCOCCOCCC(=O)NCC(N)=O)OC(=O)C(C)CCCCCCCCCCCCCC (stereo partly drawn) [Compound B4]
- optical density (650 nm) (human TLR2 [1]; 0.1 ng/mL): 0.182 and 0.206 and 0.197
- optical density (650 nm) (human TLR2 [1]; 0.31 ng/mL): 0.126 and 0.115
- optical density (650 nm) (human TLR2 [1]; 0.5 ng/mL): 0.719 and 0.594 and 0.617
- optical density (650 nm) (human TLR2 [1]; 2.0 ng/mL): 1.660 and 1.529 and 1.498
- optical density (650 nm) (human TLR2 [1]; 7.8 ng/mL): 2.214 and 2.163
- optical density (650 nm) (human TLR2 [1]; 31.3 ng/mL): 2.438 and 2.327 and 2.350
- optical density (650 nm) (human TLR2 [1]; 125 ng/mL): 2.451 and 2.411 and 2.467
- pEC50 (human TLR2 [1]; HEK-BLUE-hTLR2 cells): 9.22
- activity at TLR2 (in words) (human TLR2 [1]; HEK-BLUE-hTLR2 cells): significant activity
- fold induction at 0.0001 µg/mL (human TLR2 [1]; HEK-Blue hTLR2, 0.1 ng/mL, read-out: Fold induction (ratio of average induced value to average non-induced value)): 1.9
- fold induction at 0.00031 µg/mL (human TLR2 [1]; HEK-Blue hTLR2, 0.31 ng/mL, read-out: Fold induction (ratio of average induced value to average non-induced value)): 1.2
- fold induction at 0.0005 µg/mL (human TLR2 [1]; HEK-Blue hTLR2, 0.5 ng/mL, read-out: Fold induction (ratio of average induced value to average non-induced value)): 6.2
- fold induction at 0.002 µg/mL (human TLR2 [1]; HEK-Blue hTLR2, 2.0 ng/mL, read-out: Fold induction (ratio of average induced value to average non-induced value)): 15.2
- fold induction at 0.0078 µg/mL (human TLR2 [1]; HEK-Blue hTLR2, 7.8 ng/mL, read-out: Fold induction (ratio of average induced value to average non-induced value)): 21.3
- fold induction at 0.0313 µg/mL (human TLR2 [1]; HEK-Blue hTLR2, 31.3 ng/mL, read-out: Fold induction (ratio of average induced value to average non-induced value)): 23
- fold induction at 0.125 µg/mL (human TLR2 [1]; HEK-Blue hTLR2, 125 ng/mL, read-out: Fold induction (ratio of average induced value to average non-induced value)): 23.7
- Average optical density (650 nm) (human TLR2 [2]; 0.12 pg/mL): 0.740
- optical density (650 nm) (human TLR2 [2]; 0.12 pg/mL): 0.653 and 0.759 and 0.809
- Average optical density (650 nm) (human TLR2 [2]; 0.49 pg/mL): 1.479
- optical density (650 nm) (human TLR2 [2]; 0.49 pg/mL): 1.409 and 1.507 and 1.521
- Average optical density (650 nm) (human TLR2 [2]; 1.95 pg/mL): 1.823
- optical density (650 nm) (human TLR2 [2]; 1.95 pg/mL): 1.795 and 1.757 and 1.916
- Average optical density (650 nm) (human TLR2 [2]; 7.81 pg/mL): 2.260
- optical density (650 nm) (human TLR2 [2]; 7.81 pg/mL): 2.288 and 2.168 and 2.323
- Average optical density (650 nm) (human TLR2 [2]; 31.25 pg/mL): 2.481
- optical density (650 nm) (human TLR2 [2]; 31.25 pg/mL): 2.440 and 2.485 and 2.518
- Average optical density (650 nm) (human TLR2 [2]; 125 pg/mL): 2.521
- optical density (650 nm) (human TLR2 [2]; 125 pg/mL): 2.569 and 2.508 and 2.487
- Average optical density (650 nm) (human TLR2 [2]; 500 pg/mL): 2.611
- optical density (650 nm) (human TLR2 [2]; 500 pg/mL): 2.717 and 2.590 and 2.526
- stimulatory / agonist activity for hTLR2 (in words) (human TLR2 [2]; HEK-Blue hTLR2): stimulatory activity
- fold induction at 120 fg/mL (human TLR2 [2]; HEK-Blue hTLR2, 0.12 pg/mL, read-out: Fold Induction (ratio of average induced value to average non-induced value)): 10.3
- fold induction at 490 fg/mL (human TLR2 [2]; HEK-Blue hTLR2, 0.49 pg/mL, read-out: Fold Induction (ratio of average induced value to average non-induced value)): 20.5
- fold induction at 1.95 pg/mL (human TLR2 [2]; HEK-Blue hTLR2, 1.95 pg/mL, read-out: Fold Induction (ratio of average induced value to average non-induced value)): 25.3
- fold induction at 7.81 pg/mL (human TLR2 [2]; HEK-Blue hTLR2, 7.81 pg/mL, read-out: Fold Induction (ratio of average induced value to average non-induced value)): 31.4
- fold induction at 31.25 pg/mL (human TLR2 [2]; HEK-Blue hTLR2, 31.25 pg/mL, read-out: Fold Induction (ratio of average induced value to average non-induced value)): 34.5
- fold induction at 0.000125 µg/mL (human TLR2 [2]; HEK-Blue hTLR2, 125 pg/mL, read-out: Fold Induction (ratio of average induced value to average non-induced value)): 35
- fold induction at 0.0005 µg/mL (human TLR2 [2]; HEK-Blue hTLR2, 500 pg/mL, read-out: Fold Induction (ratio of average induced value to average non-induced value)): 36.3
- pEC50 (human TLR2 [2]; agonism of hTLR2, HEK-Blue hTLR2): 9.67
- stimulatory response in HEK-Blue Null1 (human) cells (in words) (HEK-Blue Null1 cells): not observed
- stimulatory response in HEK-Blue Null2 (mouse) cells (in words) (HEK-Blue Null2 cells): not observed
- storage stability under accelerated conditions (in words) [3]: most stable compounds
